Values of other authors as cited in patent US12527751B2, “Oral thin film with high active agent loading” (LTS LOHMANN THERAPIE-SYSTEME AG, priority 2017, dated 2026).

Settings: compared with (R) ketamine

## CNC1(c2ccccc2Cl)CCCCC1=O (racemic) [(S) ketamine, (S)-(±)-2-(2-chlorophenyl)-2-(methylamino)cyclohexan-1-one]
  Analgesic and anaesthetic potency relative to the (R) form: approximately three times higher
